Measured values: the NIST ThermoML archive (doi:10.1016/j.fluid.2016.11.012)
Several values for one entry are separate records, joined by “and”; a condition that tells them apart may be missing. Equal values may be shown once.

How the values were obtained:
[1] = Molar enthalpy of transition or fusion; details: Crystal; DSC
[2] = Crystal; for vapor or sublimation pressure: Closed cell (Static) method
[3] = molar heat capacity at constant pressure; details: 100 kPa, DSC

C1=Cc2cccc3cccc1c23 [acenaphthylene]
Details | Molar enthalpy of transition or fusion [kcal/mol]
[1] | 2.8

[2]
Details | Normal melting temperature [°C] | vapor or sublimation pressure
296.95 K | – | 0.00087 kPa
296.97 K | – | 0.00086 kPa
296.98 K | – | 0.00088 kPa
302.22 K | – | 0.00147 kPa
302.23 K | – | 0.00148 kPa and 0.00147 kPa
307.47 K | – | 0.00244 kPa
307.48 K | – | 0.00247 kPa
307.49 K | – | 0.00243 kPa
312.71 K | – | 0.00399 kPa
312.72 K | – | 0.00399 kPa and 0.00397 kPa
317.89 K | – | 0.00629 kPa and 0.00628 kPa and 0.00632 kPa
323.06 K | – | 0.00986 kPa
323.07 K | – | 0.00984 kPa and 0.00986 kPa
328.2 K | – | 0.01511 kPa
328.21 K | – | 0.01516 kPa
328.22 K | – | 0.01513 kPa
333.33 K | – | 0.02281 kPa
333.34 K | – | 0.02286 kPa and 0.02282 kPa
338.45 K | – | 0.03393 kPa and 0.03392 kPa
343.49 K | – | 0.04954 kPa
343.5 K | – | 0.04955 kPa and 0.0496 kPa
348.54 K | – | 0.07154 kPa and 0.07156 kPa
353.54 K | – | 0.1018 kPa
353.55 K | – | 0.1017 kPa and 0.1018 kPa
358.56 K | – | 0.1434 kPa and 0.1435 kPa
361.06 K | – | 0.1694 kPa
361.07 K | – | 0.1693 kPa and 0.1695 kPa
363.54 K | – | 0.1995 kPa
363.55 K | – | 0.1996 kPa and 0.1994 kPa
DTA | 92.00 | –

[3]
Details | molar heat capacity at constant pressure
304.12 K, Crystal | 185.5 J/K/mol and 185.08 J/K/mol and 185.83 J/K/mol
306.11 K, Crystal | 186.74 J/K/mol and 186.41 J/K/mol and 186.24 J/K/mol
308.11 K, Crystal | 188.24 J/K/mol and 187.99 J/K/mol and 188.07 J/K/mol
310.11 K, Crystal | 188.57 J/K/mol and 188.99 J/K/mol and 188.74 J/K/mol
312.11 K, Crystal | 189.4 J/K/mol and 189.49 J/K/mol
314.11 K, Crystal | 190.82 J/K/mol and 190.32 J/K/mol
316.11 K, Crystal | 191.23 J/K/mol and 191.73 J/K/mol and 192.23 J/K/mol
318.11 K, Crystal | 192.31 J/K/mol and 192.65 J/K/mol and 192.15 J/K/mol
320.11 K, Crystal | 193.81 J/K/mol and 193.73 J/K/mol and 193.56 J/K/mol
322.11 K, Crystal | 195.06 J/K/mol and 195.47 J/K/mol
324.11 K, Crystal | 196.55 J/K/mol and 196.06 J/K/mol and 196.14 J/K/mol
326.11 K, Crystal | 196.97 J/K/mol and 197.8 J/K/mol and 196.8 J/K/mol
328.12 K, Crystal | 198.13 J/K/mol and 198.22 J/K/mol and 198.55 J/K/mol
330.12 K, Crystal | 200.13 J/K/mol and 198.88 J/K/mol and 199.8 J/K/mol
332.13 K, Crystal | 201.21 J/K/mol and 200.88 J/K/mol and 201.38 J/K/mol
369.13 K, Liquid | 247.86 J/K/mol and 248.77 J/K/mol and 247.19 J/K/mol
371.13 K, Liquid | 249.1 J/K/mol and 248.1 J/K/mol
373.13 K, Liquid | 251.1 J/K/mol and 250.68 J/K/mol and 249.52 J/K/mol
375.13 K, Liquid | 250.68 J/K/mol and 249.02 J/K/mol and 253.51 J/K/mol
377.13 K, Liquid | 254.17 J/K/mol and 251.51 J/K/mol and 250.68 J/K/mol
379.13 K, Liquid | 253.59 J/K/mol and 250.93 J/K/mol and 251.35 J/K/mol
381.13 K, Liquid | 253.92 J/K/mol and 251.01 J/K/mol and 252.18 J/K/mol
383.13 K, Liquid | 254.76 J/K/mol and 252.59 J/K/mol and 252.51 J/K/mol
385.13 K, Liquid | 255.92 J/K/mol and 253.59 J/K/mol and 253.01 J/K/mol
387.13 K, Liquid | 255.01 J/K/mol and 253.51 J/K/mol and 252.93 J/K/mol

c1ccc2c(c1)Cc1ccccc1-2 [fluorene]
[3], Crystal
Details | molar heat capacity at constant pressure
262.36 K | 171.44 J/K/mol
262.44 K | 171.61 J/K/mol
262.47 K | 171.61 J/K/mol
265 K | 173.52 J/K/mol and 173.36 J/K/mol
270 K | 176.77 J/K/mol and 176.68 J/K/mol
275 K | 180.01 J/K/mol and 179.93 J/K/mol and 180.09 J/K/mol
280 K | 183.33 J/K/mol and 183.25 J/K/mol
285 K | 186.49 J/K/mol and 186.41 J/K/mol and 186.33 J/K/mol
290 K | 189.65 J/K/mol and 189.49 J/K/mol and 189.4 J/K/mol
295 K | 192.9 J/K/mol and 192.81 J/K/mol and 192.73 J/K/mol
300 K | 196.47 J/K/mol and 196.31 J/K/mol
305 K | 201.38 J/K/mol and 201.21 J/K/mol
310 K | 208.11 J/K/mol and 208.2 J/K/mol and 207.95 J/K/mol
315 K | 216.18 J/K/mol and 216.34 J/K/mol and 216.09 J/K/mol
320 K | 223.33 J/K/mol and 223.66 J/K/mol and 223.41 J/K/mol
325 K | 227.9 J/K/mol and 228.32 J/K/mol
330 K | 231.81 J/K/mol and 232.39 J/K/mol and 232.31 J/K/mol
335 K | 236.96 J/K/mol and 237.3 J/K/mol and 237.21 J/K/mol
340 K | 242.04 J/K/mol and 241.87 J/K/mol
345 K | 246.77 J/K/mol and 246.61 J/K/mol
350 K | 251.85 J/K/mol and 251.76 J/K/mol and 251.68 J/K/mol
355 K | 257.25 J/K/mol and 257.17 J/K/mol and 257.08 J/K/mol
358.37 K | 261.08 J/K/mol
358.5 K | 261.32 J/K/mol and 261.24 J/K/mol
